Results: US20080262097A1, “Formulations” (priority 2005, published 2008)
≈ marks a conversion by molar mass, not a printed value. Where two headings read alike, the source gives them in different places.

Assays:
S. aureus CPHL VISA Mu3 [1] = test: MIC assay; type: cell-based; conditions: Staphylococcus aureus
Description: (§1) The staphylococci and enterococci were cultured and maintained on Mueller-Hinton Medium (agar and broth) at pH 7.2; they were incubated aerobically at 37° C. for 24 hours.
(§2) This is a standard international method for quantitatively assessing the antimicrobial activity of a compound in a liquid medium. The method used a 96-well microtitre plate, capable of holding about 200 μl of liquid per well. […] The culture media were as described above for the relevant test organisms.
(§3) The wells were inoculated with a liquid suspension of freshly grown micro-organism and incubated under the conditions described above. After incubation, the microtitre plate was examined visually (with the aid of a light box) for cell pellets in and/or opaque wells, which would indicate microbial growth. The MIC value was recorded as the lowest concentration of test compound required to inhibit microbial growth, ie, the lowest concentration for which the liquid in the well remained clear.
(§4) The assays were conducted in duplicate and included both negative (culture medium only) and positive (culture medium, diluting solvent and inoculum) controls.

S. aureus ATCC 12606 [2] = test: MIC assay; type: cell-based; conditions: Staphylococcus aureus, ATCC12606
Description: as §1, §2, §3, §4

S. aureus ATCC 12604 [3] = test: MIC assay; type: cell-based; conditions: Staphylococcus aureus, ATCC12604
Description: as §1, §2, §3, §4

S. aureus CPHL VISA Mu50 [4] = test: MIC assay; type: cell-based; conditions: Staphylococcus aureus
Description: as §1, §2, §3, §4

[5] = system: Staphylococcus auricularis ATCC 33753; test: MIC assay; type: cell-based; conditions: ATCC33753
Description: as §1, §2, §3, §4

S. aureus ATCC 12602 [6] = test: MIC assay; type: cell-based; conditions: Staphylococcus aureus, ATCC12602
Description: as §1, §2, §3, §4

[7] = system: Staphylococcus haemolyticus ATCC 29970; test: MIC assay; type: cell-based; conditions: ATCC29970
Description: as §1, §2, §3, §4

[8] = system: Staphylococcus simulans ATCC 27848; test: MIC assay; type: cell-based; conditions: ATCC27848
Description: as §1, §2, §3, §4

[9] = system: Staphylococcus aureus ATCC 12600; test: MIC assay; type: cell-based; conditions: ATCC12600
Description: as §1, §2, §3, §4

[10] = system: Staphylococcus warneri ATCC 27836; test: MIC assay; type: cell-based; conditions: ATCC27836
Description: as §1, §2, §3, §4

[11] = system: Staphylococcus cohnii ATCC 29974; test: MIC assay; type: cell-based; conditions: ATCC29974
Description: as §1, §2, §3, §4

[12] = system: Staphylococcus capitis ATCC 27840; test: MIC assay; type: cell-based; conditions: ATCC27840
Description: as §1, §2, §3, §4

[13] = system: S. saprophyticus NCTC 7292; test: MIC assay; type: cell-based; conditions: Staphylococcus saprophyticus, NCTC7292
Description: as §1, §2, §3, §4

[14] = system: Staphylococcus hominis ATCC 27844; test: MIC assay; type: cell-based; conditions: ATCC27844
Description: as §1, §2, §3, §4

S. aureus ATCC 12601 [15] = test: MIC assay; type: cell-based; conditions: Staphylococcus aureus, ATCC12601
Description: as §1, §2, §3, §4

S. aureus CPHL EMRSA 17 [16] = test: MIC assay; type: cell-based; conditions: Staphylococcus aureus
Description: as §1, §2, §3, §4

S. aureus ATCC 12605 = test: MIC assay; type: cell-based; conditions: Staphylococcus aureus, ATCC12605
Description: as §1, §2, §3, §4

S. aureus ATCC 25923 [17] = test: MIC assay; type: cell-based; conditions: Staphylococcus aureus, ATCC25923
Description: as §1, §2, §3, §4

[18] = system: S. epidermidis (NCTC 11047); test: MIC assay; type: cell-based; conditions: Staphylococcus epidermidis, NCTC11047
Description: as §1, §2, §3, §4

S. aureus ATCC 12607 = test: MIC assay; type: cell-based; conditions: Staphylococcus aureus, ATCC12607
Description: as §1, §2, §3, §4

S. aureus ATCC 12600-U = test: MIC assay; type: cell-based; conditions: Staphylococcus aureus, ATCC12600
Description: as §1, §2, §3, §4

[19] = system: S. aureus CPHL GISA HO41340156; test: MIC assay; type: cell-based; conditions: Staphylococcus aureus
Description: as §1, §2, §3, §4

S. aureus CPHL VISA Mu3 [20] = test: Disc diffusion assay (DDA); type: cell-based, Staphylococcus aureus; conditions: zone diameter, 200 μg per disc
Description: as §1
(§5) A sterile paper disc was impregnated with a sample of the test compound and a minimum of 30 minutes allowed for the solvents to evaporate as far as possible. The disc was then placed on an agar plate onto which the test micro-organism had been inoculated. The plate was then incubated under the conditions described above, following which it was examined visually for signs of bacterial growth. If the test compound had antimicrobial activity, a circular zone of no growth would be obtained around the disc. The diameter of this zone of “inhibition” was measured using a ProtoCOL™ automated zone sizer (Synbiosis, Cambridge, UK). In general, a greater diameter and/or area of the zone of inhibition indicates a greater antimicrobial activity in the relevant test compound, although other factors such as test compound mobility through the agar gel may also influence the result.
(§6) The area of the zone of inhibition was calculated from the measured zone diameter (D) using the formula π(D/2)^2.

S. aureus ATCC 12606 [21] = test: Disc diffusion assay (DDA); type: cell-based, Staphylococcus aureus; conditions: zone diameter, 200 μg per disc
Description: as §1, §5, §6

S. aureus ATCC 12604 [22] = test: Disc diffusion assay (DDA); type: cell-based, Staphylococcus aureus; conditions: zone diameter, 200 μg per disc
Description: as §1, §5, §6

S. aureus CPHL VISA Mu50 [23] = test: Disc diffusion assay (DDA); type: cell-based, Staphylococcus aureus; conditions: zone diameter, 200 μg per disc
Description: as §1, §5, §6

S. aureus ATCC 12602 [24] = test: Disc diffusion assay (DDA); type: cell-based, Staphylococcus aureus; conditions: zone diameter, 200 μg per disc
Description: as §1, §5, §6

S. aureus ATCC 12601 [25] = test: Disc diffusion assay (DDA); type: cell-based, Staphylococcus aureus; conditions: zone diameter, 200 μg per disc
Description: as §1, §5, §6

S. aureus CPHL EMRSA 17 [26] = test: Disc diffusion assay (DDA); type: cell-based, Staphylococcus aureus; conditions: zone diameter, 200 μg per disc
Description: as §1, §5, §6

S. aureus ATCC 25923 [27] = test: Disc diffusion assay (DDA); type: cell-based, Staphylococcus aureus; conditions: zone diameter, 200 μg per disc
Description: as §1, §5, §6

## CC(C)(C)c1cc(O)ccc1O [TBHQ, t-butyl hydroquinone]
S. aureus CPHL VISA Mu3 [1]
  MIC: 3.9 µg/mL (≈ 23.5 µM)
S. aureus ATCC 12606 [2]
  MIC: 7.8 µg/mL (≈ 46.9 µM)
S. aureus ATCC 12604 [3]
  MIC: 7.8 µg/mL (≈ 46.9 µM)
S. aureus CPHL VISA Mu50 [4]
  MIC: 3.9 µg/mL (≈ 23.5 µM)
[5]; Staphylococcus auricularis ATCC 33753, read-out: MIC
  MIC: 0.98 µg/mL (≈ 5.9 µM)
S. aureus ATCC 12602 [6]
  MIC: 3.9 µg/mL (≈ 23.5 µM)
[7]; Staphylococcus haemolyticus
  MIC: 3.9 µg/mL (≈ 23.5 µM)
[8]; Staphylococcus simulans
  MIC: 7.8 µg/mL (≈ 46.9 µM)
[9]
  MIC: 3.9 µg/mL (≈ 23.5 µM)
[10]; Staphylococcus warneri
  MIC: 3.9 µg/mL (≈ 23.5 µM)
[11]
  MIC: 3.9 µg/mL (≈ 23.5 µM)
[12]; Staphylococcus capitis
  MIC: 1.95 to 3.9 µg/mL (≈ 11.7 to 23.5 µM)
[13]
  MIC: 3.9 µg/mL (≈ 23.5 µM)
[14]; Staphylococcus hominis
  MIC: 1.95 µg/mL (≈ 11.7 µM)
S. aureus ATCC 12601 [15]
  MIC: 7.8 µg/mL (≈ 46.9 µM)
S. aureus CPHL EMRSA 17 [16]
  MIC: 1.95 µg/mL (≈ 11.7 µM)
S. aureus ATCC 12605
  MIC: 3.9 µg/mL (≈ 23.5 µM)
S. aureus ATCC 25923 [17]
  MIC: 7.8 µg/mL (≈ 46.9 µM)
[18]
  MIC: 3.9 µg/mL (≈ 23.5 µM)
S. aureus ATCC 12607
  MIC: 3.9 µg/mL (≈ 23.5 µM)
S. aureus ATCC 12600-U
  MIC: 3.9 µg/mL (≈ 23.5 µM)
[19]
  MIC: 7.8 µg/mL (≈ 46.9 µM)
S. aureus CPHL VISA Mu3 [20]
  DDA: 50.73 mm
S. aureus ATCC 12606 [21]
  DDA: 53.34 mm
S. aureus ATCC 12604 [22]
  DDA: 55.03 mm
S. aureus CPHL VISA Mu50 [23]
  DDA: 50.11 mm
S. aureus ATCC 12602 [24]
  DDA: 57.66 mm
S. aureus ATCC 12601 [25]
  DDA: 57.34 mm
S. aureus CPHL EMRSA 17 [26]
  DDA: 51.05 mm
S. aureus ATCC 25923 [27]
  DDA: 44.70 mm

## O=C(OOC(=O)c1ccccc1)c1ccccc1 [benzoyl peroxide]
S. aureus CPHL VISA Mu3 [1]
  MIC: 125 µg/mL (≈ 516 µM)
S. aureus ATCC 12606 [2]; S. aureus ATCC 12606, read-out: MIC
  MIC: 250 µg/mL (≈ 1030 µM)
S. aureus ATCC 12604 [3]
  MIC: 125 µg/mL (≈ 516 µM)
S. aureus CPHL VISA Mu50 [4]
  MIC: 125 µg/mL (≈ 516 µM)
[5]; Staphylococcus auricularis
  MIC: 15.6 µg/mL (≈ 64.4 µM)
S. aureus ATCC 12602 [6]
  MIC: 125 µg/mL (≈ 516 µM)
[7]; Staphylococcus haemolyticus ATCC 29970, read-out: MIC
  MIC: 250 µg/mL (≈ 1030 µM)
[8]; Staphylococcus simulans ATCC 27848, read-out: MIC
  MIC: > 250 µg/mL
[9]
  MIC: 125 µg/mL (≈ 516 µM)
[10]; Staphylococcus warneri ATCC 27836, read-out: MIC
  MIC: > 250 µg/mL
[11]
  MIC: 62.5 µg/mL (≈ 258 µM)
[12]; Staphylococcus capitis ATCC 27840, read-out: MIC
  MIC: 250 µg/mL (≈ 1030 µM)
[13]; S. saprophyticus NCTC 7292, read-out: MIC
  MIC: 250 µg/mL (≈ 1030 µM)
[14]; Staphylococcus hominis ATCC 27844, read-out: MIC
  MIC: 250 µg/mL (≈ 1030 µM)
S. aureus ATCC 12601 [15]; S. aureus ATCC 12601, read-out: MIC
  MIC: 250 µg/mL (≈ 1030 µM)
S. aureus CPHL EMRSA 17 [16]
  MIC: 125 µg/mL (≈ 516 µM)
S. aureus ATCC 12605; S. aureus ATCC 12605, read-out: MIC
  MIC: 250 µg/mL (≈ 1030 µM)
S. aureus ATCC 25923 [17]; S. aureus ATCC 25923, read-out: MIC
  MIC: 250 µg/mL (≈ 1030 µM)
[18]; S. epidermidis NCTC 11047, read-out: MIC
  MIC: 250 µg/mL (≈ 1030 µM)
S. aureus ATCC 12607; S. aureus ATCC 12607, read-out: MIC
  MIC: 250 µg/mL (≈ 1030 µM)
S. aureus ATCC 12600-U; S. aureus ATCC 12600-U, read-out: MIC
  MIC: 250 µg/mL (≈ 1030 µM)
[19]
  MIC: 125 µg/mL (≈ 516 µM)
S. aureus CPHL VISA Mu3 [20]
  DDA: 10.90 mm
S. aureus ATCC 12606 [21]
  DDA: 11.68 mm
S. aureus ATCC 12604 [22]
  DDA: 12.52 mm
S. aureus CPHL VISA Mu50 [23]
  DDA: 11.64 mm
S. aureus ATCC 12602 [24]
  DDA: 12.73 mm
S. aureus ATCC 12601 [25]
  DDA: 11.68 mm
S. aureus CPHL EMRSA 17 [26]
  DDA: 11.74 mm
S. aureus ATCC 25923 [27]
  DDA: 10.86 mm
